Measurements reported in BindingDB's records for doi:10.1124/jpet.301.1.322 (Sanofi Synthelabo, 2002).
Numbering of substitutions follows the chain as printed. pKi: −log10 of the molar value. Several values for one entry are separate records, joined by “and”; a condition that tells them apart may be missing. Equal values may be shown once.

Legend:
[1] = molecular target: T1, Corticotropin-releasing factor receptor 1 (Mus musculus, UniProt P35347)
T1 sequence (P35347 whole entry): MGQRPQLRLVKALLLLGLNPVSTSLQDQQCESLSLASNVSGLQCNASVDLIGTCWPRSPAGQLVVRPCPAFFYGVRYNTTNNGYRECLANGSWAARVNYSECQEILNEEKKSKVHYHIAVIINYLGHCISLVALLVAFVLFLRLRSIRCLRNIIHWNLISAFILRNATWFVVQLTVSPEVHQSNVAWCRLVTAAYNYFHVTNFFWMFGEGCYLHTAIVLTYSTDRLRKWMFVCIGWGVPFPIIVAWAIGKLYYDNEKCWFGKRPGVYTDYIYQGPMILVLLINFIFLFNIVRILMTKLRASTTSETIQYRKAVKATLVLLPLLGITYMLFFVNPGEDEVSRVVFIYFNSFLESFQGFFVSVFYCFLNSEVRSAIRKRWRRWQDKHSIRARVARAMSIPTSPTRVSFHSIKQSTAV

[2] = molecular target: T2, Corticotropin-releasing factor receptor 1 (Rattus norvegicus, UniProt P35353)
T2 sequence (P35353 whole entry): T1 sequence (P35347 whole entry) with Q3R, Q29R, S32N, A36T, I118V, Y252H

[3] = molecular target: T3, Corticotropin-releasing factor receptor 1 (Homo sapiens, UniProt P34998)
T3 sequence (P34998 whole entry): T1 sequence (P35347 whole entry) with Q3G, R4H, T23A, Q29H, V39I, I118V, V176M, A186G, V232I, R379H

## Cc1ccccc1C(=O)Nc1ccc(C(=O)N2CCCC(O)c3cc(Cl)ccc32)c(C)c1 (stereo not drawn)
[1]
  pKi: 8.90
[2]
  pKi: 8.77 and 9.00
[3]
  pKi: 9.08
